Measurements reported in PMC4053365 (PLoS ONE, 2014).
Structures can show the parent of a compound that is named as a salt.

Key:
human KOP receptor [1] = molecular target: T1, human KOP receptor (Homo sapiens, UniProt P41145); format: cell-based; parameters: expressed in transfected cells; host or cells: CHO (CHOhKOP) stably expressing Gαqi5, whole cells
mice [2] = assay: Tail-flick test (acute thermal nociception); format: in vivo; details: s.c.; for ED50: Mus musculus, sc, 0.5 h, 30 min after administration, read-out: ED50 (95% CL) Tail-flick test
human KOP receptor [3] = molecular target: T1, human KOP receptor; assay: biochemical; parameters: expressed in transfected cells; host or cells: CHO (CHOhKOP) cell membranes
human MOP receptor [4] = molecular target: T2, human MOP receptor (Homo sapiens, UniProt P35372); assay: biochemical; format: biochemical; parameters: expressed in transfected cells; host or cells: CHO (CHOhMOP) cell membranes
T2 sequence (P35372 whole entry): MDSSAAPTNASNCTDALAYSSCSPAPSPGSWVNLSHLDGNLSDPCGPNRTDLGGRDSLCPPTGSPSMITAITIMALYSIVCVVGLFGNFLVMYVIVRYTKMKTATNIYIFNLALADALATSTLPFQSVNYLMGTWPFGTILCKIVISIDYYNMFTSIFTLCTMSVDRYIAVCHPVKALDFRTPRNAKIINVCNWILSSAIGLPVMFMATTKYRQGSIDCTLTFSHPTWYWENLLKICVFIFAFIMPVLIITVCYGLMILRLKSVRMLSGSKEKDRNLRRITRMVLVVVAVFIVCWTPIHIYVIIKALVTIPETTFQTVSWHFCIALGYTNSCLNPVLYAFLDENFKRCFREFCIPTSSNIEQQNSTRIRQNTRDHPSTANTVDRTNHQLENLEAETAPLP

KOP receptor = molecular target: T3, KOP receptor (Cavia porcellus, UniProt P41144); assay: Radioligand binding assay, [3H]U69,593, guinea pig brain membranes
T3 construct: Membranes were prepared from Sprague-Dawley rat or guinea pig brains; from tissue; host or cells: guinea pig brain membranes
T3 sequence (P41144 whole entry): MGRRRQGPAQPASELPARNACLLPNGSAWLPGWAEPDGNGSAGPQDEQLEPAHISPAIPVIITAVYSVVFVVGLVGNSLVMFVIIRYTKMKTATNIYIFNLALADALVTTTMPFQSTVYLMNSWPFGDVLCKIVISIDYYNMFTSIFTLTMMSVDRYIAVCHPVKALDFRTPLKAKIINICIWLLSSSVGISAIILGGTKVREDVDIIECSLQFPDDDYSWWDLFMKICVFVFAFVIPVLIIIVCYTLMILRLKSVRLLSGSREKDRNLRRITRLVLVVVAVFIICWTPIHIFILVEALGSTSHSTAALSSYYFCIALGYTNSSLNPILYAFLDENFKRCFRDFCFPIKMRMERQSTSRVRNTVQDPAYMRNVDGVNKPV

human MOP receptor [5] = molecular target: T2, human MOP receptor; assay: cell-based; format: cell-based; parameters: expressed in transfected cells; host or cells: CHO (CHOhMOP) stably expressing Gαqi5, whole cells
human DOP receptor [6] = molecular target: T4, human DOP receptor (Homo sapiens, UniProt P41143); format: cell-based; parameters: expressed in transfected cells; host or cells: CHO (CHOhDOP) stably expressing GαqG66Di5, whole cells; details: CHO cells co-expressing human DOP and GαqG66Di5; inactive = inactive up to 10 µM; crc = concentration response curve
T4 sequence (P41143 whole entry): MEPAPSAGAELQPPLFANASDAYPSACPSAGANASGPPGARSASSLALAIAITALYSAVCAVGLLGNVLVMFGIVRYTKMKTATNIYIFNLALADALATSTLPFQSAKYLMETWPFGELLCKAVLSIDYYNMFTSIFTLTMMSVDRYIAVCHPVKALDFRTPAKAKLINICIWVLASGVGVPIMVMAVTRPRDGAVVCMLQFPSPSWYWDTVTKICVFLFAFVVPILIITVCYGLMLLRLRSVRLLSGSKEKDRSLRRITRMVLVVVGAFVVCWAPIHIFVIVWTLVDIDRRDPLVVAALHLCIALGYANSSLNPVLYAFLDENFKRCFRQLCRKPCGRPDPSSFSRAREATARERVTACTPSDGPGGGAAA

mice [7] = assay: Observation of locomotor activity and sedation during antinociception testing; format: in vivo; details: s.c., any tested dose, about 3- to 4-fold the analgesic ED50 dose
human DOP receptor [8] = molecular target: T4, human DOP receptor; assay: biochemical; parameters: expressed in transfected cells; host or cells: CHO (CHOhDOP) cell membranes
DOP receptor = molecular target: T5, DOP receptor (Rattus norvegicus, UniProt P33533); assay: Radioligand binding assay, [3H][Ile5,6]deltorphin II, rat brain membranes
T5 construct: Membranes were prepared from Sprague-Dawley rat or guinea pig brains; from tissue; host or cells: Sprague-Dawley rat brain membranes
T5 sequence (P33533 whole entry): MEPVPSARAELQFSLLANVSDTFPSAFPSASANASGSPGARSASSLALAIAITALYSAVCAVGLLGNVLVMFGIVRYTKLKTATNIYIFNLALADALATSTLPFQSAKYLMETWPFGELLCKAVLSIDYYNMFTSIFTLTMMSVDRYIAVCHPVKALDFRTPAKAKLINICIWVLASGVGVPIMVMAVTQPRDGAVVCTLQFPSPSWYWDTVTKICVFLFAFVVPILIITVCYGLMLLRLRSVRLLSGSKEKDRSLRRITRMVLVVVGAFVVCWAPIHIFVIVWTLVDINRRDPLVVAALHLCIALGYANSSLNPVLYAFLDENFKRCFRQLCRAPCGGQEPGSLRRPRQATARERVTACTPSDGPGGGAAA

mice [9] = assay: Hot-plate test (acute thermal nociception); format: in vivo; details: s.c.; for ED50: Mus musculus, sc, 0.5 h, 30 min after administration, read-out: ED50 (95% CL) Hot-plate test
MOP receptor = molecular target: T6, MOP receptor (Rattus norvegicus, UniProt P33535); assay: Radioligand binding assay, [3H]DAMGO, rat brain membranes; details: for Selectivity ratio DOP/MOP / Selectivity ratio KOP/MOP: ratio of Ki values
T6 construct: Membranes were prepared from Sprague-Dawley rat or guinea pig brains; from tissue; host or cells: Sprague-Dawley rat brain membranes
T6 sequence (P33535 whole entry): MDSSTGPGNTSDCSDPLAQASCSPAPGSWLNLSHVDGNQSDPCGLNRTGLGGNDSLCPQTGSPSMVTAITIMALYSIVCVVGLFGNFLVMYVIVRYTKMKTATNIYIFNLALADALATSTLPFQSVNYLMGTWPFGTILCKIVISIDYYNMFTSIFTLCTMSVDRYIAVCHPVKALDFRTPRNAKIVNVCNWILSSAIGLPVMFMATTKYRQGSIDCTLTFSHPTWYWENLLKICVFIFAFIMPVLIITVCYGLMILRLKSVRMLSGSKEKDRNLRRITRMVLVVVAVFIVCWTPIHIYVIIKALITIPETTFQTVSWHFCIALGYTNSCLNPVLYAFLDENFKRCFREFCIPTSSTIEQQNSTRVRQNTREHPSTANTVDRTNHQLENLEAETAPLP

MOP = molecular target: MOP; parameters: method as in earlier work; details: read-out: Ki MOP (previously reported); cited from earlier work
KOP = molecular target: KOP; parameters: method as in earlier work; details: read-out: Ki KOP (previously reported); cited from earlier work
DOP = molecular target: DOP; parameters: method as in earlier work; details: read-out: Ki DOP (previously reported); cited from earlier work
rodents = details: fraction or fold of morphine potency; cited from earlier work

T1 sequence (P41145 whole entry): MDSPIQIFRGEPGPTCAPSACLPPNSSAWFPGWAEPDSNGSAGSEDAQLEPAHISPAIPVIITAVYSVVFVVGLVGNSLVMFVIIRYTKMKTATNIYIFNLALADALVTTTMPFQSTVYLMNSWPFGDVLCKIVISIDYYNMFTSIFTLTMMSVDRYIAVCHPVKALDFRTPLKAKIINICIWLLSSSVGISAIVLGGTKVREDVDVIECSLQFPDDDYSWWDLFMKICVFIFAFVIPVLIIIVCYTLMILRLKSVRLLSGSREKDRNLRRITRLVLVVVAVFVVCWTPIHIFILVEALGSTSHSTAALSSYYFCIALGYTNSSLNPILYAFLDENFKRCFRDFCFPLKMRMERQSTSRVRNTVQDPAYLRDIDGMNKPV

## O=C1CC[C@@]2(O)[C@H]3Cc4ccc(O)c5c4[C@@]2(CCN3CCc2ccccc2)[C@H]1O5 (as salt: HCl) [Compound 6, N-phenethylnoroxymorphone]
other
  melting point: 85 to 90 °C

## Oc1ccc2c3c1O[C@H]1[C@@H](O)C=C[C@H]4[C@@H](C2)N(CCc2ccccc2)CC[C@@]341 [Compound 1, N-phenethylnormorphine]
Human KOP receptor [1]
  Calcium mobilization assay KOP EC50: inactive ^d
  Calcium mobilization assay KOP Emax: inactive ^d
Mice [2]
  ED50: 0.11 mg/kg
Mice [2]; vs morphine
  Tail-flick test, more effective than morphine: 28 fold
Human KOP receptor [3]
  EC50: 1050 nM
Human KOP receptor [3]; read-out: [35S]GTPγS functional assay KOP Emax
  Emax: 19 ± 2%
Human MOP receptor [4]
  EC50: 10.3 ± 0.9 nM
  MOP agonist potency in [35S]GTPγS more potent than DAMGO: 2 fold
  MOP agonist potency in [35S]GTPγS more potent than morphine: about 3 fold
Human MOP receptor [4]; read-out: [35S]GTPγS functional assay MOP Emax
  Emax: 113 ± 8%
KOP receptor
  Ki: 107 ± 18 nM
Human MOP receptor [5]
  Calcium mobilization MOP more active than 14-hydroxy analogue 4: about 3 fold
  Calcium mobilization MOP more potent than morphine: about 3 fold
  EC50: 48.8 ± 14 nM
Human MOP receptor [5]; read-out: Calcium mobilization assay MOP Emax
  Emax: 70 ± 4%
Human DOP receptor [6]
  Calcium mobilization assay DOP EC50: crc incomplete ^e
Mice [7]
  Locomotor activity and sedative effects: no major alterations in locomotor activity and no sedative effects
Human DOP receptor [8]
  EC50: 712 ± 86 nM
Human DOP receptor [8]; read-out: [35S]GTPγS functional assay DOP Emax
  Emax: 138 ± 17%
DOP receptor
  Ki: 37 ± 5.5 nM
other
  melting point: 255 to 257 °C
Mice [9]
  ED50: 0.11 mg/kg
Mice [9]; vs morphine
  Hot-plate test, more effective than morphine: 22 fold
MOP receptor
  Ki: 0.93 ± 0.14 nM
  Selectivity ratio DOP/MOP: 40
  Selectivity ratio KOP/MOP: 115
MOP receptor; vs morphine
  MOP receptor affinity greater than morphine: 7 fold

## Oc1ccc2c3c1O[C@H]1[C@@H](O)C=C[C@H]4[C@@H](C2)N(CCCc2ccccc2)CC[C@@]341 [Compound 2, N-phenylpropylnormorphine]
KOP receptor
  Ki: 565 ± 24 nM
DOP receptor
  Ki: 869 ± 171 nM
MOP receptor
  Ki: 79.5 ± 1.1 nM
  Selectivity ratio DOP/MOP: 11
  Selectivity ratio KOP/MOP: 7

## Oc1ccc2c3c1O[C@H]1[C@@H](O)C=C[C@@]4(O)[C@@H](C2)N(CCc2ccccc2)CC[C@]314 [Compound 4, N-Phenethyl-14-hydroxynormorphine]
Human KOP receptor [1]
  Calcium mobilization assay KOP EC50: inactive ^d
  Calcium mobilization assay KOP Emax: inactive ^d
Mice [2]
  ED50: 1.14 mg/kg
KOP receptor
  Ki: 513 ± 66 nM
Human DOP receptor [6]
  Calcium mobilization assay DOP EC50: inactive ^d
Mice [7]
  Locomotor activity and sedative effects: no major alterations in locomotor activity and no sedative effects
DOP receptor
  Ki: 163 ± 17 nM
MOP receptor
  Ki: 4.6 ± 0.01 nM
MOP receptor; vs compound 1
  MOP receptor affinity lower than 14-unsubstituted counterpart 1: about 5 fold
MOP receptor; vs compound 3
  MOP receptor binding affinity increase over 14-hydroxymorphine (3): about 4 fold

## O=C1CC[C@@]2(O)[C@H]3Cc4ccc(O)c5c4[C@@]2(CCN3Cc2ccccc2)[C@H]1O5 [Compound 5, N-Benzylnoroxymorphone]
MOP
  Ki: […]
other
  melting point: 235 to 237 °C
KOP
  Ki: […]
DOP
  Ki: […]

## O=C1CC[C@@]2(O)[C@H]3Cc4ccc(O)c5c4[C@@]2(CCN3CCc2ccccc2)[C@H]1O5 [Compound 6, N-phenethylnoroxymorphone]
Mice [2]
  ED50: 0.15 mg/kg
Mice [7]
  Locomotor activity and sedative effects: no major alterations in locomotor activity and no sedative effects
Mice [9]
  ED50: 0.18 mg/kg
Mice [9]; hot-plate and tail-flick tests, vs compound 4
  Antinociceptive potency higher than 6-hydroxy counterpart 4: up to 8 fold
Mice [9]; hot-plate and tail-flick tests, vs oxymorphone
  Antinociceptive potency higher than oxymorphone: about 2 fold

## Oc1ccc2c3c1OC1C(O)C=CC4C(C2)N(Cc2ccccc2)CCC341 (centres unmarked) [N-benzylnormorphine]
rodents
  Analgesic potency relative to morphine: less than one-tenth

## CN1CC[C@]23c4c5ccc(O)c4O[C@H]2C(=O)CC[C@@]3(O)[C@H]1C5 [Oxymorphone, reference compound]
Mice [2]
  ED50: 0.35 mg/kg
Mice [9]
  ED50: 0.38 mg/kg

## N-cyclohexylethylnormorphine
rodents
  Analgesic potency relative to morphine: one-third
